Experimental data reported in PubChem BioAssay (NCI).
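Values below derive from 48-hour exposures of cells grown in 96-well plates, with endpoints linearly interpolated between the two concentrations bracketing the appropriate inhibition level. The concentration for 50% growth inhibition is given as GI50. Definition used: TGI = concentration required for complete inhibition of growth.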

Legend:
Assay in all cases: DTP human tumour cell line panel, 48 h
[1] = test system: SK-MEL-5 melanoma
[2] = test system: HS 578T breast
[3] = test system: UO-31 renal
[4] = test system: OVCAR-8 ovarian
[5] = test system: UACC-257 melanoma
[6] = test system: NCI-H460 lung
[7] = test system: KM12 colon
[8] = test system: SN12C renal
[9] = test system: MDA-MB-231 breast
[10] = test system: SNB-19 CNS

Row | SMILES | GI50 [1] [nM] | TGI [1] [µM] | GI50 [2] [nM] | TGI [2] [µM] | GI50 [3] [µM] | TGI [3] [µM] | GI50 [4] [nM] | TGI [4] [µM] | GI50 [5] [µM] | TGI [5] [µM] | GI50 [6] [nM] | TGI [6] [µM] | GI50 [7] [nM] | TGI [7] [µM] | GI50 [8] [µM] | TGI [8] [µM] | GI50 [9] [nM] | TGI [9] [µM] | GI50 [10] [µM] | TGI [10] [µM]
1 | Cc1nn(-c2ccccc2)c(C)c1/C=N/N1CCN(Cc2ccccc2)CC1 | 18700 | 36.7 | > 100000 | > 100 | 66.4 | > 100 | > 100000 | > 100 | 63 | > 100 | 33500 | > 100 | 31300 | > 100 | > 100 | > 100 | 22600 | 95.2 | > 100 | > 100
2 | Nc1ncnc2c1c(C(=O)NO)cn2C1OC(CO)C(O)C1O (centres undefined) | 739 | 2.15 | 331 | 3.54 | 0.368 | 3.75 | 353 | > 100 | 0.522 | 3.52 | 431 | 9.19 | 267 | – | 0.244 | 1.24 | 464 | 5.32 | 0.847 | > 100
3 | O=C(O)CP(=O)(c1ccccc1)c1ccccc1.O=C(O)CP(=O)(c1ccccc1)c1ccccc1.[Cd] | 2190 | 13.3 | 19400 | > 100 | 21.6 | 49.1 | 32700 | > 100 | 15.4 | 31.4 | 3900 | > 100 | 7970 | 22.7 | 16.4 | 31.1 | 15700 | 32.2 | 48.1 | > 100
4 | Cc1csc(-c2ccc3c(c2)COC3(CCCN(C)C)c2ccc(F)cc2)c1 (centres undefined) | 1820 | 3.26 | 1930 | 4.44 | 1.46 | 2.79 | 2350 | 5.69 | 1.81 | 3.76 | 1900 | 3.5 | 1950 | 3.75 | 1.79 | 3.4 | 1790 | 3.34 | 1.75 | 3.31
5 | Cc1cc(O)c(O)c(Oc2cc(C)cc(O)c2O)c1 | – | > 100 | – | > 100 | – | > 100 | – | 45.1 | – | > 100 | – | 26.6 | – | > 100 | – | 59.7 | – | 52.7 | – | > 100
6 | C(=C\c1nc2ccccc2s1)/c1ccc(N2CCOCC2)s1 | 21800 | > 100 | 37000 | > 100 | 80.5 | > 100 | 35500 | > 100 | 51.3 | > 100 | 51300 | > 100 | 93800 | > 100 | 43.3 | > 100 | > 100000 | > 100 | 51.4 | > 100
7 | COc1ccc(CCN2COc3ccc4ccc(=O)oc4c3C2)cc1OC | – | > 100 | – | > 100 | – | > 100 | – | > 100 | – | > 100 | – | > 100 | – | > 100 | – | > 100 | – | > 100 | – | > 100
8 | CS(=O)(=O)c1ccc(-c2[nH]c3ccc(F)cc3c2/C=N/NC(N)=S)cc1 | 634 | 11.9 | 293 | 7.74 | 2.84 | > 100 | 2760 | > 100 | > 100 | > 100 | 2280 | > 100 | 730 | 28.8 | 3.14 | > 100 | 1650 | > 100 | 1.31 | > 100
9 | O=c1cc(-c2ccccc2)nc2cc(-c3ccco3)[nH]n12 | 6580 | 22.1 | 7100 | 37.3 | 7.92 | 59.8 | 18000 | > 100 | 17.3 | > 100 | 4490 | 20.6 | 3260 | 50.6 | 18.5 | > 100 | 7840 | > 100 | 12.6 | > 100
10 | Cc1nc2sc(C(=O)Nc3cccc(Cl)c3C)c(N)c2cc1C(=O)c1ccccc1 | 278 | 6.13 | 194 | > 50 | 0.408 | > 50 | 403 | > 50 | 14.6 | > 50 | 198 | 10.3 | 225 | > 50 | 0.568 | > 50 | 463 | > 50 | 0.222 | > 50
11 | O=C(Nc1cccc(-n2cc(-c3ccncc3)c(-c3ccc(O)c(Cl)c3)n2)c1)c1ccc(N2CCOCC2)c(C(F)(F)F)c1 | 1750 | > 50 | 548 | > 50 | 2.99 | > 50 | 2240 | > 50 | > 50 | > 50 | 1820 | > 50 | 1120 | > 50 | > 50 | > 50 | 857 | 3.09 | > 50 | > 50
12 | Cc1ccc(C)c(N2C(=O)C(=O)c3c(C)ccc(C)c32)c1 | – | 41.2 | – | 63.4 | – | 55.3 | – | 51.5 | – | 48.2 | – | > 100 | – | 66.1 | – | > 100 | – | 49.8 | – | > 100
13 | CCNC(=O)c1ccc2c(c1)nc(-c1ccc(Cl)cc1)n2-c1cc(C(C)(C)C)[nH]n1 | 1540 | 5.72 | 2580 | 7.6 | 3.46 | 44.5 | 3060 | 13.4 | 3.59 | 30.5 | 3530 | 12.5 | 3120 | 36.8 | 3.79 | 70 | 5560 | 28.5 | 3.97 | > 100
14 | NCC(=O)NC(CO)C(=O)O (centres undefined) | – | > 100 | – | > 100 | – | > 100 | – | > 100 | – | > 100 | – | > 100 | – | > 100 | – | > 100 | – | > 100 | – | > 100
